Melting point and ΔPaO2 data for 39 compounds are collected here from patent publication US20010006969A1, “PYRIMIDINE NUCLEUS-CONTAINING COMPOUND AND A MEDICAMENT CONTAINING THE SAME FOR A BLOOD OXYGEN PARTIAL PRESSURE AMELIORATION, AND A METHOD FOR PREPARING THE SAME” (priority 1997, published 2001).

Structures can show the parent of a compound that is named as a salt.

Tested on in one data set: not given
Test: not given
Settings: not given
In turn, `C=CCNc1nc(NCC=C)c2cc(Cl)ccc2n1` [Example 1, 2,4-Diallylamino-6-chloroquinazoline] yielded a melting point of 78 to 79 °C.

Regarding `C=CCNc1nc(NCC=C)c2cc([N+](=O)[O-])ccc2n1` [Example 3, 2,4-Diallylamino-6-nitroquinazoline], the melting point is 198 to 200 °C (dec.).

On to `C=CCNc1nc(NCCC)nc2ccc([N+](=O)[O-])cc12` [Example 4, 4-Allylamino-6-nitro-2-propylaminoquinazoline], for which the melting point was in the range of 197 to 198 °C.

Compound `C=CCNc1nc(NCC(C)(C)C)nc2ccc([N+](=O)[O-])cc12` [Example 5, 4-Allylamino-2-neopentylamino-6-nitroquinazoline] displayed a melting point of 167 to 168 °C.

Compound `C=CCNc1nc(NC(C)C=C)nc2ccc([N+](=O)[O-])cc12` (stereo not shown) [Example 65, 4-Allylamino-2-(1-methyl-2-propenylamino)-6-nitroquinazoline] displayed a melting point of 123 to 124 °C.

In turn, `C=CCNc1nc(NCC(C)(C)C)c2scc(C)c2n1` [Example 67, 2-Allylamino-7-methyl-4-neopentylaminothieno[3,2-d] pyrimidine] came in with a melting point of 90 to 92 °C.

`C=CCNc1nc(NCc2ccccc2)c2scc(C)c2n1` [Example 69, 2-Allylamino-4-benzylamino-7-methylthieno[3,2-d] pyrimidine] registered a melting point of 97 to 98 °C.

Compound `C=CCNc1nc(NC(CO)CO)c2scc(C)c2n1` [Example 73, 2-Allylamino-4-(1,3-dihydroxypropan-2-yl)amino-7-methylthieno[3,2-d]pyrimidine] showed a melting point of 163 to 164 °C.

Compound `C=CCNc1nc(NC(C)C)c2scc(C)c2n1` [Example 77, 2-Allylamino-4-isopropylamino-7-methylthieno[3,2-d] pyrimidine] came in with a melting point of 106 to 107 °C.

`C=CCNc1nc(NCCOC)nc2c(C)csc12` [Example 85, 4-Allylamino-2-(2-methoxyethylamino)-7-methylthieno[3,2-d] pyrimidine] returned a melting point of 87 to 88 °C.

`C=CCNc1nc(NCCC)nc2c(C)csc12` [Example 86, 4-Allylamino-7-methyl-2-propylaminothieno[3,2-d] pyrimidine] gave a melting point of 74 to 75 °C.

The compound `C=CCNc1nc(NNC(C)(C)C)c2scc(C)c2n1` [Example 89, 2-Allylamino-4-(2-t-butylhydrazino)-7-methylthieno[3,2-d] pyrimidine] came in with a melting point of 105 to 107 °C.

Take `C=CCNc1nc(NC(=O)C(C)(C)C)c2scc(C)c2n1` [Example 90, 2-Allylamino-7-methyl-4-pivaloylaminothieno[3,2-d] pyrimidine]: the melting point is 88 to 89 °C.

For `C=CCNc1nc(NC(=O)NC2CCCCC2)c2scc(C)c2n1` [Example 93, 2-Allylamino-4-(cyclohexylcarbamoyl)amino-7-methylthieno[3,2-d]pyrimidine], the melting point lay within 152 to 153 °C.

As to `C=CCNC(=O)Nc1nc(NCC=C)nc2c(C)csc12` [Example 96, 2-Allylamino-4-(allylcarbamoyl)amino-7-methylthieno[3,2-d] pyrimidine], the melting point was 164 to 165 °C.

In turn, `C=CCNc1nc(NC(=O)NCCCC)c2scc(C)c2n1` [Example 97, 2-Allylamino-4-(butylcarbamoyl)amino-7-methylthieno[3,2-d] pyrimidine] gave a melting point of 141 °C.

In turn, `C=CCNc1nc(NC(=O)N2CCCC2)c2scc(C)c2n1` [Example 98, 2-Allylamino-7-methyl-4-(1-pyrrolidinylcarbonyl)aminothieno[3,2-d]pyrimidine] registered a melting point of 98 to 101 °C.

In turn, `C#CCNc1nc(NCC=C)nc2c(C)csc12` [Example 99, 2-Allylamino-7-methyl-4-(2-propynylamino)thieno[3,2-d] pyrimidine] came in with a melting point of 95 to 96 °C.

As for `C=CCNc1nc(NCC(=C)C)c2scc(C)c2n1` [Example 100, 2-Allylamino-7-methyl-4-(2-methyl-2-propenylamino)thieno[3,2-d]pyrimidine], the melting point worked out at 83 °C.

`C=CCNc1nc(NCC=C(C)C)c2scc(C)c2n1` [Example 101, 2-Allylamino-7-methyl-4-(3-methyl-2-butenylamino)thieno[3,2-d]pyrimidine] had a melting point of 114 to 115 °C.

Compound `C=CCNc1nc(NC/C=C/c2ccccc2)c2scc(C)c2n1` [Example 102, 2-Allylamino-4-(trans-cinnamylamino)-7-methylthieno[3,2-d] pyrimidine] returned a melting point of 82 to 84 °C.

Consider `C=CCNc1nc(NCC=C)c2scc(-c3ccccc3)c2n1` [Example 110, 2,4-Diallylamino-7-phenylthieno[3,2-d]pyrimidine], for which the melting point lay in the range of 98 to 100 °C.

`C=CCNc1nc(NCC=C)c2scc(Br)c2n1` [Example 111, 2,4-Diallylamino-7-bromothieno[3,2-d]pyrimidine] yielded a melting point of 87 to 88 °C.

Compound `C=CCNC(=O)CCNc1nc(NCC=C)nc2c(C)csc12` [Example 112, 2-Allylamino-4-[2-(allylcarbamoyl)ethylamino]-7-methylthieno[3,2-d]pyrimidine] registered a melting point of 95 to 96 °C.

For another data set, the system named is hypoxemic model rats. Nature of the data set: Determination of oxygen partial pressure increasing action (arterial blood PaO2 gain in hypoxemic model rats). Type of data set: in vivo, Sprague-Dawley male rats. As to conditions: quinazoline derivatives; urethane-anesthetized rats, hypoxic state (PaO2≦75 mmHg) by olive oil-charcoal powder suspension; i.v. continuously 0.1 mg/kg/min; PaO2 measured 10 minutes after completion of administration; gain before vs after. The procedure: Determination of oxygen partial pressure increasing action
Actions of the quinazoline derivatives of the present invention to increase oxygen partial pressure in the arterial blood were determined according to the following method:
Sprague-Dawley male rats having body weights of about 250 g were anesthetized (i.p.) with urethane and cannulated to the respiratory tracts, femoral arteries and femoral veins. An olive oil-charcoal powder suspension (10 mg/ml) was introduced in an amount of 0.8 ml/kg through the respiratory tract cannulae into the lungs to cause the rats to hypoxic state (PaO2≦75 mmHg). The quinazoline derivatives listed in Table 1 were intravenously administered to these hypoxemic model rats continuously at a rate of 0.1 mg/kg/min, and arterial blood oxygen partial pressure value (PaO2) of each rat was measured at the time point of 10 minutes after completion of administration using a blood gas analyzer (Ciba Corning 800 series). Gains (APaO2) were determined based on results of PaO2 measurement made before and after administration of the test compounds.
Actions of the thienopyrimidine derivatives of the present invention to increase oxygen partial pressure in the arterial blood were determined according to the following method:
Sprague-Dawley male rats having body weights of about 250 g were anesthetized (i.p.) with urethane and cannulated to the respiratory tracts, femoral arteries and femoral veins. An olive oil-charcoal powder suspension (10 mg/ml) was introduced in an amount of 0.8 ml/kg through the respiratory tract cannulae into the lungs to cause the rats to be under hypoxic state (PaO2 Δ 75 mmHg). The thienopyrimidine derivatives listed in Table 2 were intravenously administered to these hypoxemic model rats continuously at a rate of 0.1 mg/kg/min, and arterial blood oxygen partial pressure value (PaO2) of each rat was measured at the time point of 10 minutes after completion of administration using a blood gas analyzer (Ciba Corning 800 series). Gains (ΔPaO2) were determined based on results of PaO2 measurement made before and after administration of the test compounds.
Compound `C=CCNc1nc(NCC=C)c2cc(Cl)ccc2n1` [Example 1, 2,4-Diallylamino-6-chloroquinazoline] showed a ΔPaO2 of 35 mmHg.

`C=CCNc1nc(NCC=C)c2cc([N+](=O)[O-])ccc2n1` [Example 3, 2,4-Diallylamino-6-nitroquinazoline] gave a ΔPaO2 of 28 mmHg.

Take `C=CCNc1nc(NCCC)nc2ccc([N+](=O)[O-])cc12` [Example 4, 4-Allylamino-6-nitro-2-propylaminoquinazoline]: the ΔPaO2 came out at 34 mmHg.

The compound `C=CCNc1nc(NCC(C)(C)C)nc2ccc([N+](=O)[O-])cc12` [Example 5, 4-Allylamino-2-neopentylamino-6-nitroquinazoline] showed a ΔPaO2 of 43 mmHg.

Compound `C=CCNc1nc(NCCCCC)c2cc([N+](=O)[O-])ccc2n1` [Example 25, 2-Allylamino-6-nitro-4-pentylaminoquinazoline hydrochloride] showed a ΔPaO2 of 46 mmHg.

The compound `C=CCNc1nc(NCCCCCCC)c2cc([N+](=O)[O-])ccc2n1` [Example 26, 2-Allylamino-4-heptylamino-6-nitroquinazoline hydrochloride] returned a ΔPaO2 of 46 mmHg.

`C=CCNc1nc(NC2CCCC2)c2cc([N+](=O)[O-])ccc2n1` [Example 27, 2-Allylamino-4-cyclopentylamino-6-nitroquinazoline hydrochloride] yielded a ΔPaO2 of 35 mmHg.

`C=CCNc1nc(NC(C)C)c2cc([N+](=O)[O-])ccc2n1` [Example 28, 2-Allylamino-4-isopropylamino-6-nitroquinazoline hydrochloride] returned a ΔPaO2 of 26 mmHg.

On to `C=CCNc1nc(NCCCC)nc2ccc([N+](=O)[O-])cc12` [Example 31, 4-Allylamino-2-butylamino-6-nitroquinazoline hydrochloride], for which the ΔPaO2 is recorded as 36 mmHg.

For `C=CCNc1nc(NCc2ccco2)nc2ccc([N+](=O)[O-])cc12` [Example 33, 4-Allylamino-2-furfurylamino-6-nitroquinazoline hydrochloride], the ΔPaO2 came to 42 mmHg.

Take `C=CCNc1nc(NC2CCCC2)nc2ccc([N+](=O)[O-])cc12` [Example 34, 4-Allylamino-2-cyclopentylamino-6-nitroquinazoline hydrochloride]: the ΔPaO2 stood at 32 mmHg.

Take `C=CCNc1nc(NCCCCC)nc2ccc([N+](=O)[O-])cc12` [Example 35, 4-Allylamino-6-nitro-2-pentylaminoquinazoline hydrochloride]: the ΔPaO2 came to 34 mmHg.

`C=CCNc1nc(NC(C)CC)c2cc([N+](=O)[O-])ccc2n1` (stereo not drawn) [Example 49, 2-Allyiamino-4-(l-methylpropylamino)-6-nitroquinazoline hydrochloride] showed a ΔPaO2 of 32 mmHg.

Still in this data set, the particulars now being: thienopyrimidine derivatives; urethane-anesthetized rats, hypoxic state (PaO2 Δ 75 mmHg) by olive oil-charcoal powder suspension; i.v. continuously 0.1 mg/kg/min; PaO2 measured 10 minutes after completion of administration; gain before vs after.
`C=CCNc1nc(NC2CCCCC2)c2scc(C)c2n1` [Example 70, 2-Allylamino-4-cyclohexylamino-7-methylthieno[3,2-d] pyrimidine hydrochloride] came in with a ΔPaO2 of 42 mmHg.

With `C=CCNc1nc(N(CC=C)CC=C)c2scc(C)c2n1` [Example 71, 2-Allylamino-4-diallylamino-7-methylthieno[3,2-d] pyrimidine hydrochloride], the ΔPaO2 is 26 mmHg.

`C=CCNc1nc(NC(C)(C)C)c2scc(CC)c2n1` [Example 104, 2-Allylamino-4-t-butylamino-7-ethylthieno[3,2-d]pyrimidine] displayed a ΔPaO2 of 41 mmHg.

With `C=CCNc1nc(NCC=C)c2scc(CCC)c2n1` [Example 105, 2,4-Diallylamino-7-propylthieno[3,2-d]pyrimidine], the ΔPaO2 is 28 mmHg.

Consider `C=CCNc1nc(NC(C)(C)C)c2scc(CCC)c2n1` [Example 106, 2-Allylamino-4-t-butylamino-7-propylthieno[3,2-d] pyrimidine], for which the ΔPaO2 stood at 28 mmHg.

In turn, `C=CCNc1nc(NC)c2scc(CCC)c2n1` [Example 107, 2-Allylamino-4-methylamino-7-propylthieno[3,2-d] pyrimidine] showed a ΔPaO2 of 41 mmHg.

By melting point is commonly meant the temperature, or range, at which the solid turns liquid.
